One compound from patent US20260256811A1, “Humoral Immune Activators for the Treatment of Humoral Immunosuppressed Pathologies, Cancer and Infectious Disease and Humoral Immune Suppressors for the Treatment of Inflammatory Diseases” (Navrogen, Inc., priority 2022, published 2026) can be followed below.

Series [1] is described as follows: Metabolic stability in mouse liver microsomes. The format is in vitro ADME. As to conditions: mouse, microsomes. As for the experimental part: (§1) We next tested Compounds 2, 26, 27 and 33 for metabolic stability using human and mouse microsomes. For each test compound, samples were diluted a final concentration of 2 μg/mL in 25 mM potassium phosphate buffer with liver microsomes of each species at a final concentration of 0.5 mg/mL. The enzyme reaction was initiated by the addition of NADPH reagent at a final concentration of 1 mM. For negative control samples, NADPH reagent was not added. Samples were incubated at 37° C. on a 50-RPM orbital shaker, and an aliquot was removed at pre-determined timepoints at 0, 5, 10, 15, 30, and 60 minutes. Samples were then precipitated with three volume of acetonitrile containing propranolol as an internal standard, and centrifuged for 10 min at 2000 g then analyzed by LC/MS/MS. Note that compounds undergo only Phase I metabolism in liver microsomes in the presence of NADPH cofactors. Data interpretation of results are based on percent parent compound remaining relative to 0-minute incubation samples, from which the elimination half-life is calculated based on the natural log of % compound remaining vs. time plot. The following parameters were calculated to estimate the compound's in vitro metabolic stability: Cmp=concentration of microsomal proteins (mg/mL); t1/2=the half-life (min), where t1/2 is equal to 0.693/slope; CLint=the intrinsic hepatic clearance (μL/min/mg), where CLint is equal to 0.693/(t1/2×Cmp).
On the technique in general: Liver microsomes are vesicles of endoplasmic reticulum, rich in cytochrome P450 enzymes.

The next series relates to tumor target cells. Put plainly: ADCC and cytokine production by mouse splenocyte (SPL) effector cells. The series is classed as cell-based. As to conditions: 25 or 50 μM plus targeting antibody, 24 hours; vs antibody alone (vehicle). The method, then: (§2) Briefly, 5,000 human breast carcinoma (SKBR3 or OE19) or OV-CD20 target cells were plated in black 96-well microplates in R7.5 media for 48 hours. Wells were washed and 50,000 PBMC, NK or SPL effector cells were added in R1 assay media with or without a targeting test antibody and 25 or 50 μM of Compound 2. Vehicle is the solvent that Compound 2 is dissolved in. For assays employing SKBR3 human breast cancer or OE19 esophageal adenocarcinoma cell lines, 2.5 μg/mL of the HER2-targeting trastuzumab test antibody was used for ADCC assays. For OV-CD20 assays, 2.5 μg/mL of the CD20-targeting rituximab test antibody was used for ADCC assays. Cultures were incubated for 24 hours at 37° C. in 5% CO2 in triplicate. After incubation, culture supernatants were harvested for cytokine analysis and wells were washed with phosphate buffered saline and adhered target cell viability was quantified via Cell Titer-GLO (Promega) using a Varioskan plate reader. […] ADCC data was graphed as percent killing of antibody treated with Compound 2 or vehicle vs. cultures not treated with antibody. […] AICC results were graphed as percent killing by Compound 2 vs vehicle only treated cultures. […] Experiments represent a minimum of triplicate wells.

Series [2] deals with CD16a FcR. Nature of the series: Cytokine ELISA on culture media of JKT-CD16a and parental Jurkat cells. As to conditions: 10 μM, 18 hours, ELISA of supernatant. The series is classed as cell-based, human.
The target in a further series is T1, CD16a-158F FcR (Homo sapiens, UniProt P08637).
T1 construct: host or cells: Jurkat (JKT-CD16a luciferase reporter line)
T1 sequence (P08637 17-254): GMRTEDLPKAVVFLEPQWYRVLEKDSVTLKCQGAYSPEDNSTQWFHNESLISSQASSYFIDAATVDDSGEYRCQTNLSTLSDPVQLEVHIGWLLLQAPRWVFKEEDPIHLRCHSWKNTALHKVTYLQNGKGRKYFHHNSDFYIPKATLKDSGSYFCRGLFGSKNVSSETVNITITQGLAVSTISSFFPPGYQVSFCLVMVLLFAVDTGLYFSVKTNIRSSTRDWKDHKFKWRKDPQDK
T1 sequence (P20963 22-164 partner): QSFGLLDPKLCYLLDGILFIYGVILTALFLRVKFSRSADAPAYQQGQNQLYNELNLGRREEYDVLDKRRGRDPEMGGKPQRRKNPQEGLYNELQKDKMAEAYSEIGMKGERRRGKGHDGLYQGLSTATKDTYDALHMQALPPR
Nature of the series: Jurkat-CD16a-158F-luciferase (JKT-CD16a) reporter bioassay. The format is cell-based.

Series [3] deals with SKBR3, OE19 or OV-CD20 target cells. Nature of the series: ADCC by human PBMC and NK effector cells against tumor target cells. The settings on record: 25 or 50 μM plus 2.5 μg/mL trastuzumab or rituximab, 24 hours; vs antibody alone (vehicle). The series is classed as cell-based. The method, then: as §2
Series [4] has as its system CD16a FcR. Put plainly: Cytokine and granzyme ELISA on supernatants of primary human effector cells. The format is cell-based. As for the experimental part: as §2
On the technique in general: In an ELISA, binding on a coated surface is turned into a signal by an enzyme label.

The subject of the next series is OV-CD20 tumor cells. Put plainly: AICC by human primary NK cells. The series is classed as cell-based. The settings on record: absence of antibody, vs vehicle. The method, then: as §2
In a further series the test system is SARS-COV-2 virus. Nature of the series: Viability of human PBMCs exposed to SARS-COV-2 virus. The series is classed as cell-based. The settings on record: Severe acute respiratory syndrome coronavirus 2, PBMC, 72 h, read-out: PBMC viability after SARS-COV-2 exposure. An excerpt: NK cells have been previously reported to be capable of killing virally infected cells (Bjorkstrom N K, et al. Nat Reviews Immunol 22:112-123, 2022). In particular, previous studies have shown that the SARS-COV-2 virus can infect human PBMCs and this infection can be lethal to overall PBMC survival (Manunta MDI, et al. Scientific Reports 11:4904-4916, 2021). To test the ability of CD16a FcR activating small molecular weight agents described here to activate effector cells within PBMCs that in turn can kill virally infected PBMC sib cells and reduce viral load, Compound 2 was tested against human PBMCs exposed to SARS-COV-2 virus. Briefly, IL2-activated PBMCs grown in RPMI media with 10% heat inactivated FBS (R10) were plated at 100,000 cells/well in 96 well U-bottom microplates. Next, […] viral titers (previously determined by plaque forming units, PFU) were added to appropriate wells with or without 25 μM of Compound 2. Cultures were incubated for 72 hours at 37° C. in 5% CO2. Plates were centrifuged and supernatants collected for future cytokine and viral titer analysis. Cells were resuspended in RPMI plus 10% FBS, transferred to 96-well black microplates and tested for viability using Cell Titer-Glo (Promega) and read for viability on a 96-well microplate reader. […] Experiments represent a minimum of triplicate wells.

Series [5] is described as follows: Metabolic stability in human liver microsomes. As to conditions: human, microsomes. The format is in vitro ADME. The method, then:
as §1

The nature of series [6]: Tolerability and serum TNFα in athymic nude mice, i.v. dosing. The series is classed as in vivo. The method, then: To determine the ability of Compound 2 to activate immune-effector cells in vivo, we administered 7 mg/kg of Compound 2 or similar volumes of vehicle (ethanol) daily for 5 days (day 1-5) and isolated total serum on day 11 to measure for immune-effector cell activation markers. […] Experiments represent a minimum of triplicate wells.

The half-life is the time needed for the level to fall by half in the phase considered. A low value points to rapid decline. For orientation: microsomal CLint means the rate of metabolic loss divided by the concentration. Usually viability stands for a read-out of living cells in per cent, often relative to untreated cells. In [1], `CC(C)=CCC[C@@H](C)[C@H]1CC[C@@]2(C)C3CC[C@H]4C(C)(C)[C@@H](O)CC[C@@]45C[C@@]35CC[C@]12C` (some centres unmarked) [Compound 2] had a half-life at 2 μg/mL of 1.88 h and an intrinsic metabolic clearance (microsomal CLint) at 2 μg/mL of 12.3 µL/min/mg. In the series with tumor target cells, the “mouse (SPL cells) effector cell killing of target cells through ADCC” value is on record as “enhance”. Besides, in the series on CD16a FcR [2], the “IFNγ and TNFα production by JKT-CD16a-158F cells” value is “both cytokines were produced”; the “IFNγ and TNFα production by parental Jurkat cells (CD16a-null)” value is given as “little to no cytokine production”. Further, the “JKT-CD16a activation (luciferase RLU) in the presence of IgG” value at CD16a-158F FcR (OV-CD20 target cells plus 2.5 μg/mL rituximab, 12-18 hours, vs vehicle or no compound) is “significant enhancement”. In addition, the “JKT-CD16a-158F FcR activation (luciferase RLU) in the absence of IgG antibody” value on CD16a-158F FcR (OV-CD20 target cells without antibody, lower levels than with IgG) is given as “stimulated”. In series [3], the “human (PBMC and NK cells) effector cell killing of target cells through ADCC” value is given as “enhance”. The “TNFα, IFNγ, GM-CSF and granzyme B production by NK cells” value in the series with CD16a FcR [4] (absence of antibody, ELISA of supernatants) was “produced and secreted”. Further, the “time of exposure to activation and cytokine production” value in the series with CD16a FcR [4] (time course analysis) is at most 30 min. Also, in the series on OV-CD20 tumor cells, the “NK cell killing of OV-CD20 tumor cells via AICC” value is “enabled NK cell killing of OV-CD20 tumor cells”. Moreover, the viability at 25 µM with SARS-COV-2 virus stood at 100%. Further, in [5], the half-life at 2 μg/mL was 1.18 h and the microsomal CLint at 2 μg/mL is 19.7 µL/min/mg. For the same compound, the “serum TNFα” value in series [6] (7 mg/kg i.v. daily day 1-5, serum on day 11, ELISA, vehicle cohort 11 μg/mL) is 298 µg/mL. For the same compound, the “tolerability by lack of body weight loss” value in series [6] (7 mg/kg i.v. daily for 5 days, athymic nude mice) is reported as “well tolerated”. Besides, the “tolerable dose, daily i.v. dosing” value in series [6] (athymic nude mice) was “at least 7 mg/kg”.
